Experimental data published in patent publication US10167258B2, “Inhibitors of mitochondrial pyruvate dehydrogenase kinase isoforms 1-4 and uses thereof” (The Board of Regents of the University of Texas System, priority 2013, dated 2019).

Assays:
PDK2 = PDK2 (Homo sapiens, UniProt Q15119); test: Isothermal titration calorimetry (ITC), binding to PDK2; design: made in house; settings: ITC; read-out: Kd, nM for PDK2
Method: Recombinant human PDK2 was expressed and purified as a N terminal His6-tagged SUMO fusion protein with a tobacco-etch-virus protease (TEV) cleavage site in front of the N-terminal PDK2 sequence (26), and was used directly for the activity assay and binding affinity analyses. […] The purified protein was concentrated to 35-40 mg/ml and stored at −80° C. in small aliquots. Recombinant human PDK1, PDK3 and PDK4 were expressed and purified as described previously (26).
(§1) The PDK2 or Hsp90 N-terminal domain protein was dialyzed against one liter of the dialysis buffer containing 50 mM Tris-Cl, pH 7.5, 50 mM KCl, 1 mM MgCl2, and 0.5 mM β-mercaptoethanol. […] All of the ITC data were initially analyzed by the NITPIC program (32) to construct the baseline, followed by curve-fitting in Origin 7 to obtain binding parameters.

ChREBP = test: Hepatic nuclear ChREBP protein levels in PDK inhibitor-treated DIO mice; format: in vivo; settings: 40 mg/kg/day by mini-pumps for 5 days
Source text: The antibody (from Santa Cruz) against the 95-kilodalton ChREBP is highly specific; no signal was detected in hepatic nuclear fractions from ChREBP KO mice. The reduced nuclear ChREBP protein levels correlate with curtailed liver-type pyruvate kinase (LPK) (FIG. 11B), the marker glycolytic enzyme tightly regulated by ChREBP^5. The increased PDC flux is indicated by diminished phosphorylation of the decarboxylase/dehydrogenase (E1)-α subunit of this enzyme complex (FIG. 11B); while the expression of this subunit is not affected (not shown). The glucose-sensitive transcription factor ChREBP discovered and cloned by the Uyeda group in 2001 (Yamashita et al., 2001) has emerged as a central regulator of lipogenesis in liver (Uyeda and Repa, 2006; Filhoulaud et al., 2013; Denechaud et al., 2008) and β-cells (Cha-Molstad et al., 2009; Kibbe et al., 2013) at the transcriptional level (Uyeda and Repa, 2006; Filhoulaud et al., 2013; Denechaud et al., 2008). […] Therefore, the inventors propose that increased glucose oxidation through PDC flux lowers hepatic glucose concentrations and attenuates nuclear ChREBP-mediated de novo lipogenesis in liver (FIG. 12A). […]

mature SREBP-1c = test: Hepatic nuclear mature SREBP-1c protein level in PDK inhibitor-treated DIO mice; format: in vivo; settings: 40 mg/kg/day by mini-pumps for 5 days
human PDK1 = target: T1, human PDK1 (Homo sapiens, UniProt Q15118); test: Assay for inhibition of PDK activity, PDK1; format: biochemical; settings: absence of E2/E3BP core (−)
T1 construct: made in house
T1 sequence (Q15118 29-436): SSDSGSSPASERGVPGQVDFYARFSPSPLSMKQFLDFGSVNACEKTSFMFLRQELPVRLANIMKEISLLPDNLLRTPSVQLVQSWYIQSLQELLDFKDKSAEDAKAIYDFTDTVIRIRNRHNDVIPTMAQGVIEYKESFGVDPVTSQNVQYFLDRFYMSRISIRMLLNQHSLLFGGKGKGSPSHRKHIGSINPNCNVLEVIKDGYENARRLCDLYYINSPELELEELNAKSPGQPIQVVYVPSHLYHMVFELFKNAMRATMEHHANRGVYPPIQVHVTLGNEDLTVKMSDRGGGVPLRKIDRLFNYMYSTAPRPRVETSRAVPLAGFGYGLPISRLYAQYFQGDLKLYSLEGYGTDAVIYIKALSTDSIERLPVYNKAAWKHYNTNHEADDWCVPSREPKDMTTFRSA
Method: Recombinant human PDK2 was expressed and purified as a N terminal His6-tagged SUMO fusion protein with a tobacco-etch-virus protease (TEV) cleavage site in front of the N-terminal PDK2 sequence (26), and was used directly for the activity assay and binding affinity analyses. For crystallization, the protein was subjected to a TEV-protease digestion, and the untagged PDK2 protein was purified on a Superdex 200 column in 20 mM Tris-HCl (pH 8.0), 150 mM NaCl and 5 mM DTT. The purified protein was concentrated to 35-40 mg/ml and stored at −80° C. in small aliquots. Recombinant human PDK1, PDK3 and PDK4 were expressed and purified as described previously (26).
. The remaining steps were described previously (26). IC50 values were obtained by the curve fitting of inhibition isotherms using Prism 6 (GraphPad software, Inc.).

[1] = target: T2, N-terminal domain of human Hsp90 (Homo sapiens, UniProt P07900); test: Isothermal titration calorimetry (ITC), binding to Hsp90 N-terminal domain; settings: read-out: Kd, nM for Hsp 90
T2 construct: the N-terminal domain (residue 1-236) of human Hsp90; His6 (N); SUMO (N); made in house; host or cells: E. coli BL21
Method: The sequence encoding the N-terminal domain was amplified and cloned into the pSUMO expression vector (Lifesensors, Malvern, Pa.). The fusion protein of His6-tagged SUMO-Hsp90 N-terminal domain was expressed in E. coli BL21 cells and purified with Ni-NTA resin (Qiagen) and on Superdex-200 column in 20 mM Tris.HCl, pH 7.5 and 500 mM NaCl.
as §1

[2] = Solubility in DMSO used in the formulation; format: physicochemical; settings: compared with PS8

O=S(=O)(c1ccc(O)cc1O)N1Cc2cc(O)cc(O)c2C1 [PS10, 2-((2,4-dihydroxyphenyl)sulfonyl)isoindoline-4,6-diol]
Kd (PDK2): 239 nM
ChREBP protein levels in hepatic nuclear fractions (ChREBP): drastically decreased
protein level of nuclear mature SREBP-1c (mature SREBP-1c): unchanged
IC50 (human PDK1): 2070 nM
Kd [1]: 47000 nM
solubility in DMSO [2]: better solubility in DMSO
